The test system of experiment [1] is Escherichia coli. Nature of the experiment: Antimicrobial activity against Escherichia coli XL1-blue at 1 mg/mL by disc diffusion assay. The format is functional, organism-based. (In general: A growth-free zone around the sample is the usual read-out of agar diffusion tests.)
Experiment [2] deals with Rhizomucor miehei. The experiment is described as follows: Antimicrobial activity against Mucor miehei at 1 mg/mL by disc diffusion assay. The format is functional, organism-based.
Experiment [3] relates to Streptomyces prasinus. The experiment is described as follows: Antimicrobial activity against Streptomyces prasinus at 1 mg/mL by disc diffusion assay. The format is functional. The following applies: read-out: DIZ.

Activity calls are given as the source filed them. No cut-off for these calls is given here.

Consider `COC(=O)c1c(O[C@H]2C[C@H](O)C(=O)[C@H](C)O2)cc2cc3c(c(O)c2c1C)C(=O)[C@]1(O)C(=O)C=C(OC)[C@@H](O)[C@]1(O)C3=O`, for which the result in experiment [1] and in experiment [2] was inactive. The zone of inhibition at 1000 µg/mL in experiment [3] came to 12 mm.

Turning to `COC(=O)c1c(O[C@@H]2O[C@@H](C)[C@H](OC)[C@@H](OC)[C@H]2OC)cc2cc3c(c(O)c2c1C)C(=O)[C@]1(OC)C(=O)C=C(OC)[C@@H](O)[C@]1(O)C3=O` [ELLORAMYCIN], in experiment [3], the zone of inhibition at 1000 µg/mL came out at 25 mm.

Source of the values: ChEMBL document CHEMBL1955819, “Ketoolivosyl-tetracenomycin C: a new ketosugar bearing tetracenomycin reveals new insight into the substrate flexibility of glycosyltransferase ElmGT” (2012).
